Measurements taken from patent US20250382332A1, “NOVEL ALPHA-FACTOR BASED PEPTIDES WITH ANTIFUNGAL ACTIVITY” (INVAIO SCIENCES, INC., priority 2024, published 2025).
Peptide text beside a SMILES is read from it.

Test system: Botrytis cinerea (B05.10)
Assay: Resazurin antifungal assay of 180 alpha-factor peptide variants towards Botrytis (Example 2)
Format: cell-based
Details: % inhibition of fungal growth, Botrytis conidia, resazurin; for Inhibition at 10 μM: peptide 10 μM; for Inhibition at 20 μM: peptide 20 μM; for Inhibition at 50 μM: peptide 50 μM; for Inhibition at 100 μM: peptide 100 μM
Method in brief: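 Resazurin viability read-out (570/620 nm fluorescence) after a 24 h, 20° C incubation of B05.10 conidia, 5000 per well, with peptide at final 10-100 μM. Growth inhibition (%) was derived by subtracting conidia-only fluorescence; four replicates per treatment.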

Structure (SMILES)	Inhibition at 10 μM	Inhibition at 20 μM	Inhibition at 50 μM	Inhibition at 100 μM
CC[C@H](C)[C@H](NC(=O)[C@H](CCC(N)=O)NC(=O)[C@H](CC(C)C)NC(=O)[C@H](Cc1c[nH]c2ccccc12)NC(=O)[C@H](CCCNC(=N)N)NC(=O)[C@@H](N)CCCCN)C(=O)N[C@@H](CCCNC(=N)N)C(=O)N1CCC[C@H]1C(=O)NCC(=O)N[C@@H](CCC(=O)O)C(=O)N1CCC[C@H]1C(=O)N[C@@H](CCSC)C(=O)N[C@@H](Cc1ccc(O)cc1)C(=O)O [compound 109] (H-KRWLQIRPGEPMY-OH; N-terminus and C-terminus assumed)	<90%	<90%	<90%	98.64%
CC[C@H](C)[C@H](NC(=O)[C@H](CO)NC(=O)[C@H](CC(C)C)NC(=O)[C@H](Cc1c[nH]c2ccccc12)NC(=O)[C@H](Cc1c[nH]cn1)NC(=O)[C@@H](N)Cc1c[nH]c2ccccc12)C(=O)N[C@@H](CCCCN)C(=O)N1CCC[C@H]1C(=O)NCC(=O)N[C@@H](CCC(N)=O)C(=O)NCC(=O)N[C@@H](CCSC)C(=O)N[C@@H](Cc1ccc(O)cc1)C(=O)O [compound 110] (H-WHWLSIKPGQGMY-OH; N-terminus and C-terminus assumed)			<90%	97.94%
CSCC[C@H](NC(=O)[C@@H]1CCCN1C(=O)[C@H](CO)NC(=O)CNC(=O)[C@@H]1CCCN1C(=O)CNC(=O)[C@H](Cc1ccccc1)NC(=O)[C@H](CCC(N)=O)NC(=O)[C@@H](NC(=O)[C@H](Cc1c[nH]c2ccccc12)NC(=O)[C@H](Cc1c[nH]cn1)NC(=O)[C@@H](N)Cc1c[nH]c2ccccc12)C(C)C)C(=O)N[C@@H](Cc1ccc(O)cc1)C(=O)O [compound 111] (H-WHWVQFGPGSPMY-OH; N-terminus and C-terminus assumed)	<90%	<90%	<90%	96.65%
CSCC[C@H](NC(=O)[C@@H]1CCCN1C(=O)[C@H](CCC(N)=O)NC(=O)CNC(=O)[C@@H]1CCCN1C(=O)[C@H](CCCCN)NC(=O)[C@H](CC(C)C)NC(=O)[C@H](CCCNC(=N)N)NC(=O)[C@H](CC(C)C)NC(=O)[C@H](Cc1ccccc1)NC(=O)[C@H](Cc1c[nH]cn1)NC(=O)[C@@H]1CCCN1)C(=O)N[C@@H](Cc1ccc(O)cc1)C(=O)O [compound 112] (H-PHFLRLKPGQPMY-OH; N-terminus and C-terminus assumed)			<90%	99.57%
CSCC[C@H](NC(=O)[C@@H]1CCCN1C(=O)[C@H](CCC(N)=O)NC(=O)CNC(=O)[C@@H]1CCCN1C(=O)[C@H](CCCCN)NC(=O)[C@H](CC(C)C)NC(=O)[C@H](CC(N)=O)NC(=O)[C@H](CC(C)C)NC(=O)[C@H](CC(C)C)NC(=O)[C@H](Cc1c[nH]cn1)NC(=O)[C@@H](N)CCCCN)C(=O)N[C@@H](Cc1ccc(O)cc1)C(=O)O [compound 113] (H-KHLLNLKPGQPMY-OH; N-terminus and C-terminus assumed)			<90%	98.44%
CC[C@H](C)[C@H](NC(=O)[C@H](Cc1c[nH]c2ccccc12)NC(=O)[C@H](Cc1c[nH]cn1)NC(=O)[C@@H](N)Cc1c[nH]c2ccccc12)C(=O)N[C@@H](CC(N)=O)C(=O)N[C@@H](CC(C)C)C(=O)N[C@@H](Cc1c[nH]c2ccccc12)C(=O)N1CCC[C@H]1C(=O)NCC(=O)N[C@@H](CCC(N)=O)C(=O)N1CCC[C@H]1C(=O)N[C@@H](CCSC)C(=O)N[C@@H](Cc1ccc(O)cc1)C(=O)O [compound 114] (H-WHWINLWPGQPMY-OH; N-terminus and C-terminus assumed)			<90%	100%
CSCC[C@H](NC(=O)[C@@H]1CCCN1C(=O)[C@H](CCC(N)=O)NC(=O)CNC(=O)[C@H](CC(C)C)NC(=O)[C@H](CCCCN)NC(=O)[C@H](CC(C)C)NC(=O)[C@H](CCC(N)=O)NC(=O)[C@H](CC(C)C)NC(=O)[C@@H](NC(=O)[C@H](CCCCN)NC(=O)[C@@H](N)CCCCN)C(C)C)C(=O)N[C@@H](Cc1ccc(O)cc1)C(=O)O [compound 115] (H-KKVLQLKLGQPMY-OH; N-terminus and C-terminus assumed)			<90%	99.72%
CSCC[C@H](NC(=O)[C@@H]1CCCN1C(=O)[C@H](CCC(N)=O)NC(=O)CNC(=O)[C@@H]1CCCN1C(=O)[C@H](CCCCN)NC(=O)[C@H](Cc1ccccc1)NC(=O)[C@H](CCCCN)NC(=O)[C@H](CC(C)C)NC(=O)[C@H](CC(=O)O)NC(=O)[C@H](Cc1c[nH]cn1)NC(=O)[C@@H](N)CCCCN)C(=O)N[C@@H](Cc1ccc(O)cc1)C(=O)O [compound 116] (H-KHDLKFKPGQPMY-OH; N-terminus and C-terminus assumed)			<90%	93.51%
CSCC[C@H](NC(=O)[C@@H]1CCCN1C(=O)[C@H](CCC(N)=O)NC(=O)CNC(=O)[C@@H]1CCCN1C(=O)[C@H](CCCCN)NC(=O)[C@H](CC(C)C)NC(=O)[C@H](CCC(N)=O)NC(=O)CNC(=O)[C@H](CO)NC(=O)[C@H](CCC(N)=O)NC(=O)[C@@H](N)Cc1c[nH]c2ccccc12)C(=O)N[C@@H](Cc1ccc(O)cc1)C(=O)O [compound 117] (H-WQSGQLKPGQPMY-OH; N-terminus and C-terminus assumed)			<90%	<90%
CSCC[C@H](NC(=O)[C@H](Cc1c[nH]cn1)NC(=O)[C@@H](N)Cc1c[nH]c2ccccc12)C(=O)N[C@@H](CC(C)C)C(=O)N[C@@H](CC(N)=O)C(=O)N[C@@H](Cc1ccccc1)C(=O)N[C@@H](CCCCN)C(=O)N1CCC[C@H]1C(=O)NCC(=O)N[C@@H](CCC(N)=O)C(=O)N1CCC[C@H]1C(=O)N[C@@H](CCSC)C(=O)N[C@@H](Cc1ccc(O)cc1)C(=O)O [compound 118] (H-WHMLNFKPGQPMY-OH; N-terminus and C-terminus assumed)			<90%	<90%
CSCC[C@H](NC(=O)[C@@H]1CCCN1C(=O)[C@H](CCC(=O)O)NC(=O)CNC(=O)[C@@H](NC(=O)CNC(=O)[C@H](CC(C)C)NC(=O)[C@H](CCCCN)NC(=O)[C@H](CC(C)C)NC(=O)[C@H](Cc1c[nH]c2ccccc12)NC(=O)[C@H](Cc1c[nH]cn1)NC(=O)[C@@H](N)Cc1c[nH]c2ccccc12)[C@@H](C)O)C(=O)N[C@@H](Cc1ccc(O)cc1)C(=O)O [compound 119] (H-WHWLKLGTGEPMY-OH; N-terminus and C-terminus assumed)			<90%	98.65%
CC[C@H](C)[C@H](NC(=O)[C@H](CCC(N)=O)NC(=O)CNC(=O)[C@H](CCSC)NC(=O)[C@H](CO)NC(=O)[C@@H](N)Cc1c[nH]c2ccccc12)C(=O)N[C@@H](CCCCN)C(=O)N1CCC[C@H]1C(=O)NCC(=O)N[C@@H](CO)C(=O)N1CCC[C@H]1C(=O)N[C@@H](CCSC)C(=O)N[C@@H](Cc1ccc(O)cc1)C(=O)O [compound 120] (H-WSMGQIKPGSPMY-OH; N-terminus and C-terminus assumed)			<90%	<90%
CC[C@H](C)[C@H](NC(=O)[C@H](CCC(N)=O)NC(=O)[C@H](CC(C)C)NC(=O)CNC(=O)[C@H](CO)NC(=O)[C@@H]1CCCN1)C(=O)N[C@@H](CCCCN)C(=O)N[C@H](C(=O)NCC(=O)N[C@@H](CCC(N)=O)C(=O)N1CCC[C@H]1C(=O)N[C@@H](CCSC)C(=O)N[C@@H](Cc1ccc(O)cc1)C(=O)O)C(C)C [compound 121] (H-PSGLQIKVGQPMY-OH; N-terminus and C-terminus assumed)			<90%	<90%
CSCC[C@H](NC(=O)[C@H](CO)NC(=O)[C@H](CO)NC(=O)CNC(=O)[C@@H]1CCCN1C(=O)[C@H](CCCCN)NC(=O)[C@H](CC(C)C)NC(=O)[C@H](CO)NC(=O)[C@H](CC(C)C)NC(=O)[C@H](Cc1c[nH]c2ccccc12)NC(=O)[C@H](CCC(=O)O)NC(=O)[C@@H]1CCCN1)C(=O)N[C@@H](Cc1ccc(O)cc1)C(=O)O [compound 122] (H-PEWLSLKPGSSMY-OH; N-terminus and C-terminus assumed)			<90%	<90%
CSCC[C@H](NC(=O)CNC(=O)[C@H](CCC(N)=O)NC(=O)CNC(=O)[C@H](Cc1ccc(O)cc1)NC(=O)[C@H](CCCCN)NC(=O)[C@H](CC(C)C)NC(=O)[C@H](CCC(N)=O)NC(=O)[C@@H](NC(=O)[C@H](Cc1c[nH]c2ccccc12)NC(=O)[C@H](CCC(N)=O)NC(=O)[C@@H](N)CCCCN)C(C)C)C(=O)N[C@@H](Cc1ccc(O)cc1)C(=O)O [compound 123] (H-KQWVQLKYGQGMY-OH; N-terminus and C-terminus assumed)			<90%	100%
CC[C@H](C)[C@H](NC(=O)CNC(=O)[C@H](Cc1c[nH]cn1)NC(=O)[C@@H](N)Cc1c[nH]c2ccccc12)C(=O)N[C@@H](CCC(N)=O)C(=O)N[C@@H](CC(C)C)C(=O)N[C@@H](Cc1ccccc1)C(=O)N[C@@H](CCCCN)C(=O)NCC(=O)N[C@@H](CCC(N)=O)C(=O)N1CCC[C@H]1C(=O)N[C@@H](CCSC)C(=O)N[C@@H](Cc1ccc(O)cc1)C(=O)O [compound 124] (H-WHGIQLFKGQPMY-OH; N-terminus and C-terminus assumed)			<90%	100%
CSCC[C@H](NC(=O)[C@@H]1CCCN1C(=O)[C@H](CCC(N)=O)NC(=O)CNC(=O)[C@@H]1CCCN1C(=O)[C@H](Cc1ccc(O)cc1)NC(=O)[C@H](CC(C)C)NC(=O)[C@H](CCC(N)=O)NC(=O)[C@@H](NC(=O)[C@H](Cc1c[nH]c2ccccc12)NC(=O)[C@H](CCC(=O)O)NC(=O)[C@@H](N)CCCCN)C(C)C)C(=O)N[C@@H](Cc1ccc(O)cc1)C(=O)O [compound 125] (H-KEWVQLYPGQPMY-OH; N-terminus and C-terminus assumed)			<90%	<90%
